Data on 37 molecules can be found in patent publication US10654837B2, “Sulphamoylaryl derivatives and use thereof as medicaments for the treatment of liver fibrosis” (Janssen Pharmaceutica NV, priority 2017, dated 2020).

The target of the assay is T1, 5HTR2B (Homo sapiens, UniProt P41595).
T1 construct: host or cells: human Maverick/293 cells
Description: 5HTR2B antagonist activity, calcium mobilization assay in human Maverick/293 cells (serotonin as agonist). It counts as cell-based. The note with it: intracellular calcium, emission 525 nm, read-out: Ca assay IC50. In a few lines:
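Serum-starved (2 h) human Maverick/293 cells loaded with calcium dye for 50 min at 37 °C, then antagonist preincubated 15-30 min before serotonin challenge. Calcium fluorescence (ex 485/em 525 nm) recorded for 80 s; peak-based % inhibition fitted sigmoidally for IC50.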
On the technique in general: A change in cytosolic calcium serves as a functional read-out for many receptors and channels.

T1 sequence (P41595 whole entry): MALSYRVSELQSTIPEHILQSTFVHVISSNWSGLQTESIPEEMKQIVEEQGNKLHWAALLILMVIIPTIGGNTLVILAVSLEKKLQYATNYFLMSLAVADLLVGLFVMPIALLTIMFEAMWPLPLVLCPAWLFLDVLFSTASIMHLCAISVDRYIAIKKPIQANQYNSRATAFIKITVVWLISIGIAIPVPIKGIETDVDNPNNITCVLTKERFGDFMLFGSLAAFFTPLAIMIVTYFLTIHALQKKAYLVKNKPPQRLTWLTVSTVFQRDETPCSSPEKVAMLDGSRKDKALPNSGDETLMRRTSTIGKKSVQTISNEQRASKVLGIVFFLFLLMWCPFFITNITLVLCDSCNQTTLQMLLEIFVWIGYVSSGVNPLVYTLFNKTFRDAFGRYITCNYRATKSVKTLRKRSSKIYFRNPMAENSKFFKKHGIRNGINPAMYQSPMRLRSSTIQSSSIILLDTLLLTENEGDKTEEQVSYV

Broadly, the IC50 is the concentration needed to halve the response being measured. As to `COc1ccc(S(=O)(=O)NC2COC[C@H]2O)cc1C(=O)Nc1ccccc1Cl` (stereo in doubt) [Compound 56b, N-(2-Chlorophenyl)-5-(N-((cis)-4-hydroxytetrahydrofuran-3-yl)sulfamoyl)-2-methoxybenzamide], the half-inhibitory concentration (IC50) was found to be 0.2 nM.
For `COc1ccc(S(=O)(=O)N[C@H]2CCOC2)cc1C(=O)Nc1ccc(C#N)c(F)c1` [Compound 90] the value was 1360 nM; for `COc1ccc(S(=O)(=O)NC2CN(C)C2)cc1C(=O)Nc1ccc(F)c(C)n1` [Compound 170, N-(5-Fluoro-6-methylpyridin-2-yl)-2-methoxy-5-(N-(1-methylazetidin-3-yl)sulfamoyl)benzamide], 58 nM; for `COc1ccc(NS(=O)(=O)[C@@H]2CCOC2)cc1C(=O)Nc1ccc(F)c(C)c1` (single isomer, unassigned) [Compound 202b, (R*)N-4-fluoro-3-methylphenyl)-2-methoxy-5-(tetrahydrofuran-3-sulfonamido)benzamide], 2.8 nM.
As for `COc1ccc(N(C)S(=O)(=O)C2CCOC2)cc1C(=O)Nc1ccc(F)c(C)c1` (single isomer, unassigned) [Compound 204a, (R*)—N-(4-Fluoro-3-methylphenyl)-2-methoxy-5-(N-methyltetrahydrofuran-3-sulfonamido)benzamide], the half-inhibitory concentration (IC50) worked out at 50 nM.
With `COc1ccc(S(=O)(=O)N[C@H]2C[C@H](O)C2)cc1C(=O)Nc1cc(F)ccc1Cl` [Compound 146a, N-(2-chloro-5-fluorophenyl)-5-(N-((trans)-3-hydroxycyclobutyl)sulfamoyl)-2-methoxybenzamide], the IC50 is 0.8 nM.
The result for `COc1ccc(S(=O)(=O)N[C@H]2CCOC2)cc1C(=O)Nc1ccc(F)c(F)c1F` [Compound 88, (S)-2-Methoxy-5-(N-(tetrahydrofuran-3-yl)sulfamoyl)-N-(2,3,4-trifluorophenyl) benzamide] reads 28 nM.
On to `COc1ccc(S(=O)(=O)N[C@H]2C[C@@H](O)C2)cc1C(=O)Nc1cc(F)ccc1Cl` [Compound 146b, N-(2-chloro-5-fluorophenyl)-5-(N-((cis)-3-hydroxycyclobutyl)sulfamoyl)-2-methoxybenzamide], for which the half-maximal inhibitory concentration (IC50) amounted to 1 nM.
The result for `COc1ccc(S(=O)(=O)NC2(C(F)(F)F)CC2)cc1C(=O)Nc1ccc(F)cc1` [Compound 50, N-(4-Fluorophenyl)-2-methoxy-5-(N-(1-(trifluoromethyl)cyclopropyl)sulfamoyl)benzamide] reads 7.6 nM.
Take `COc1ccc(S(=O)(=O)NC2CCCC2)cc1C(=O)Nc1ccc(F)cc1` [Compound 51, 5-(N-Cyclopentylsulfamoyl)-N-(4-fluorophenyl)-2-methoxybenzamide]: the concentration for half-maximal inhibition (IC50) was 1 nM.
For `COc1ccc(S(=O)(=O)N[C@H]2CCOC2)cc1C(=O)Nc1ccc(Cl)cc1F` [Compound 114, (S)—N-(4-Chloro-2-fluorophenyl)-2-methoxy-5-(N-(tetrahydrofuran-3-yl)sulfamoyl)benzamide] the value was 0.4 nM; for `COc1ccc(S(=O)(=O)N[C@H]2CC[C@@H](O)CC2)cc1C(=O)Nc1ccc(F)c(C(F)F)c1` [Compound 38, N-(3-(Difluoromethyl)-4-fluorophenyl)-5-(N-((cis)-4-hydroxycyclohexyl)sulfamoyl)-2-methoxybenzamide], 0.6 nM; for `COc1ccc(S(=O)(=O)N[C@H]2CC[C@H](O)CC2)cc1C(=O)Nc1ccc(F)c(C)n1` [Compound 18, (trans)-N-(5-Fluoro-6-methylpyridin-2-yl)-5-(N-(−4-hydroxycyclohexyl)sulfamoyl)-2-methoxybenzamid], 222 nM.
The result for `COc1ccc(S(=O)(=O)N[C@H]2CCOC2)cc1C(=O)Nc1cccc2c1cnn2C` [Compound 110, (S)-2-Methoxy-N-(1-methyl-1H-indazol-4-yl)-5-(N-(tetrahydrofuran-3-yl)sulfamoyl)benzamide] reads 10 nM.
For `COc1ccc(S(=O)(=O)NC2(C)COC2)cc1C(=O)Nc1ccc(F)c(C(F)F)c1` [Compound 36, N-(3-(Difluoromethyl)-4-fluorophenyl)-2-methoxy-5-(N-(3-methyloxetan-3-yl)sulfamoyl)benzamide] the value was 2.7 nM; for `COc1ccc(S(=O)(=O)N[C@H]2CCOC2)cc1C(=O)Nc1ccccc1OC(F)F` [Compound 128, (S)—N-(2-(Difluoromethoxy)phenyl)-2-methoxy-5-(N-(tetrahydrofuran-3-yl)sulfamoyl)benzamide], 1.2 nM.
In the case of `COc1ccc(S(=O)(=O)N[C@H]2CCOC2)cc1C(=O)Nc1cccc(F)c1Cl` [Compound 3, (S)—N-(2-Chloro-3-fluorophenyl)-2-methoxy-5-(N-(tetrahydrofuran-3-yl)sulfamoyl) benzamide], the half-inhibitory concentration (IC50) came to 1.7 nM.
For `COc1ccc(S(=O)(=O)N[C@H]2CCOC2)cc1C(=O)Nc1ccc(C(F)(F)F)cc1` [Compound 101, (S)-2-Methoxy-5-(N-(tetrahydrofuran-3-yl)sulfamoyl)-N-(4-(trifluoromethyl)phenyl)benzamide] the value was 219 nM.
The result for `COc1ccc(S(=O)(=O)N[C@H]2CCOC2)cc1C(=O)Nc1ccc(C)cc1` [Compound 129, (S)-2-Methoxy-5-(N-(tetrahydrofuran-3-yl)sulfamoyl)-N-(p-tolyl)benzamide] reads 12 nM; that for `COc1ccc(S(=O)(=O)NC2CCN(C)CC2)cc1C(=O)Nc1ccc(F)c(C)n1` [Compound 19, N-(5-Fluoro-6-methylpyridin-2-yl)-2-methoxy-5-(N-(1-methylpiperidin-4-yl)sulfamoyl)benzamide], 173 nM; that for `COc1ccc(S(=O)(=O)NC2(C(F)(F)F)CC2)cc1C(=O)Nc1ccc(F)c(C)n1` [Compound 168, N-(5-fluoro-6-methylpyridin-2-yl)-2-methoxy-5-(N-(1-(trifluoromethyl)cyclopropyl)sulfamoyl)benzamide], 3.9 nM.
For `COc1ccc(S(=O)(=O)N[C@H]2CCNC2)cc1C(=O)Nc1cc(F)ccc1Cl` [Compound 186, (S)—N-(2-chloro-5-fluorophenyl)-2-methoxy-5-(N-(pyrrolidin-3-yl)sulfamoyl) benzamide] the value was 0.3 nM; for `COc1ccc(S(=O)(=O)N[C@H]2CCOC2)cc1C(=O)Nc1cc(F)c(F)c(F)c1` [Compound 97, (S)-2-Methoxy-5-(N-(tetrahydrofuran-3-yl)sulfamoyl)-N-(3,4,5-trifluorophenyl) benzamide], 186 nM.
Regarding `CCCOc1ccc(S(=O)(=O)N[C@H]2CCOC2)cc1C(=O)Nc1ccc(F)c(C)n1` [Compound 199, (S)—N-(5-fluoro-6-methylpyridin-2-yl)-2-propoxy-5-(N-(tetrahydrofuran-3-yl)sulfamoyl) benzamide], the IC50 was 3.7 nM.
For `COC[C@H](C)NS(=O)(=O)c1ccc(OC)c(C(=O)Nc2ccc(F)cc2)c1` (single isomer, unassigned) [Compound 40a, (S*)—N-(4-Fluorophenyl)-2-methoxy-5-(N-(1-methoxypropan-2-yl)sulfamoyl) benzamide] the value was 1.7 nM; for `COc1ccc(S(=O)(=O)N[C@H]2CCC[C@H]2O)cc1C(=O)Nc1ccccc1Cl` [Compound 61a, N-(2-Chlorophenyl)-5-(N-((1s,2r)-2-hydroxycyclopentyl)sulfamoyl)-2-methoxy benzamide], 0.1 nM; for `COc1ccc(S(=O)(=O)N[C@H]2CCOC2)cc1C(=O)Nc1ccc(F)c(C)c1` [Compound 4, (S)—N-(4-Fluoro-3-methylphenyl)-2-methoxy-5-(N-(tetrahydrofuran-3-yl)sulfamoyl)benzamide], 0.7 nM.
For `COc1ccc(S(=O)(=O)N[C@@H]2CC[C@H](O)C2)cc1C(=O)Nc1ccc(F)cc1` (single isomer, unassigned) [Compound 45a, N-(4-Fluorophenyl)-5-(N-((cis)-3-hydroxycyclopentyl)sulfamoyl)-2-methoxybenzamide] the value was 1.3 nM; for `COc1ccc(S(=O)(=O)NC2(CO)COC2)cc1C(=O)Nc1ccc(F)c(C)c1` [Compound 13, N-(4-Fluoro-3-methylphenyl)-5-(N-(3-(hydroxymethyl)oxetan-3-yl)sulfamoyl)-2-methoxybenzamide], 66.3 nM; for `COc1ccc(S(=O)(=O)NC2CC[C@H](O)C2)cc1C(=O)Nc1ccc(F)cc1` (stereo partly shown) [Compound 45b], 1.9 nM.
The result for `COc1ccc(S(=O)(=O)NC2CC[C@H](O)C2)cc1C(=O)Nc1ccccc1Cl` (stereo partly shown) [Compound 57a] reads 0.2 nM; that for `COc1ccc(S(=O)(=O)N[C@H]2C[C@@H](O)C2)cc1C(=O)Nc1ccc(Cl)cc1F` [Compound 143b, N-(4-chloro-2-fluorophenyl)-5-(N-((cis)-3-hydroxycyclobutyl)sulfamoyl)-2-methoxybenzamide], 5.9 nM.
For the molecule `COc1ccc(S(=O)(=O)N[C@H]2C[C@@H](O)C2)cc1C(=O)Nc1ccc(F)cn1` [Compound 157, N-(5-Fluoropyridin-2-yl)-5-(N-((cis)-3-hydroxycyclobutyl)sulfamoyl)-2-methoxybenzamide], the half-inhibitory concentration (IC50) came out at 53 nM.
For `COc1ccc(S(=O)(=O)N[C@H]2CCOC2)cc1C(=O)Nc1cccc(C)c1` [Compound 159] the value was 0.7 nM.
The result for `COc1ccc(S(=O)(=O)N[C@H]2CCOC2)cc1C(=O)Nc1cc(Cl)cc(Cl)c1` [Compound 86, (S)—N-(3,5-Dichlorophenyl)-2-methoxy-5-(N-(tetrahydrofuran-3-yl)sulfamoyl) benzamide] reads 1.8 nM.
For `COc1ccc(S(=O)(=O)NC(C)C(F)(F)F)cc1C(=O)Nc1ccc(F)c(C)n1` (single isomer, unassigned) [Compound 29a, (S*)—N-(5-Fluoro-6-methylpyridin-2-yl)-2-methoxy-5-(N-(1,1,1-trifluoropropan-2-yl)sulfamoyl)benzamide] the value was 3 nM.
Take `COc1ccc(S(=O)(=O)NC2CC[C@H](O)C2)cc1C(=O)Nc1ccc(F)c(C(F)F)c1` (stereo in doubt) [Compound 33b, N-(3-(Difluoromethyl)-4-fluorophenyl)-5-(N-((cis)-3-hydroxycyclopentyl)sulfamoyl)-2-methoxybenzamide]: the half-maximal inhibitory concentration (IC50) is 0.4 nM.
